Data: patent US20120107820A1, “Multiplexed Quantitative PCR End Point Analysis of Nucleic Acid Targets” (MASSACHUSETTS INSTITUTE OF TECHNOLOGY, priority 2009, published 2012)

How the values were obtained:
[1] = tested on: HL60 (human promyelocytic leukemia) cells; test: Gene expression profiling of tretinoin-treated HL60 cells, LMA RT-PCR amplicons detected on encoded hydrogel particles; assay type: cell-based; conditions: for Raw Signal (AU) / Differential Expression: log(tret/DMSO): HL60 cells; for Raw Signal (AU): 1 μmol/l tretinoin, five days; for Normalized Signal: normalized to LUA95, tretinoin-treated HL60 cells; for Differential Expression: log(tret/DMSO): tretinoin vs DMSO
Procedure: (§1) Gene expression profiling experiment were conducted to detect and quantify the effects of drug treatment on expression of certain target mRNAs in a complex sample using hydrogel particles. Applicants repeated previously reported multiplex ligation-mediated PCR experiments that used Luminex FlexMAP (Luminex, Austin, Tex., USA) optically addressed barcoded microspheres in side by side experiments with hydrogel particles using an endogenous reference gene for quantification. The methods used are described in Peck et al. A Method for High-Throughput Gene Expression Signature Analysis, Genome Biology, 7:R61, 2006; details are set forth in Example 3. Although the Peck et al experiments were done with traditional RT-PCR and hybridization in multiple steps, the experiments are amendable to embodiments of the present methods for one chamber quantitative multiplexed end point PCR.
(§2) HL60 (human promyelocytic leukemia) cells were cultured in the presence of either […] in DMSO or DMSO alone, and quantification was based on comparison of target mRNA expression to the reference gene […]. […] Upstream and downstream probe pairs designed for each of the targets by Peck were used to generate the amplicons. Unique upstream biotin-conjugated primers for each target included a 24 nucleotide bar code sequence for each of the five mRNAs. Applicants designed probes for immobilization on encoded hydrogel particles that were complementary to the 24 nucleotide bar code on each unique upstream primer to enable capture of the amplicons on encoded hydrogel particles. Methods for making the particles are described in Example 3. Each encoded hydrogel particle was made with multiple probe regions directed to each of the five mRNAs (four targets and one reference gene) and a control, respectively.
(§3) Total RNA was isolated from the HL60 cells, reverse-transcribed and amplified using a simple RT-PCR method. In order to compare the sensitivity of the encoded hydrogel particles to the Luminex magnetic particles, the exact protocol described by Peck et al. was followed. There were 39 cycles in which: there was an initial denaturation at 92° C. for 9 minutes, followed by denaturation at 92° C. for 30 s, followed by annealing at 60° C. for 30 s, extension at 72° C. for 30 s for 39 cycles, and a final extension at 72° C. for 5 minutes. After a final denaturation at 95° C. for two minutes hybridization was carried out at 45° C. for 60 minutes. Note that in the preferred embodiments of the present invention the hybridization temperature is from 2-15° C. […] than the primer annealing temperature to optimize specificity. By contrast, the hybridization temperature (45° C.) used by Peck et al. was 15° C. lower than the annealing temperature.
(§4) After hybridization, the respective Luminex and hydrogel particles were rinsed, incubated with streptavidin-phycoerythrin to fluorescently label the primers, rinsed again, and imaged for fluorescence. The fluorescent signals obtained were quantified and normalized against the internal reference (LUA95) after subtracting the background signal from the control region on each particle (CTL).
(§5) Similar to the protocol described in Peck et al., Genome Biology, 7:R61, 2006, HL60 (human promyelocytic leukemia) cells were cultured in RPMI supplemented with 10% fetal bovine serum and antibiotics. Cells were treated with 1 μmol/l tretinoin (all-trans retinoic acid; Sigma-Aldrich, St Louis, Mo., USA) in dimethyl sulfoxide (DMSO; final concentration 0.1%) or DMSO alone for five days. Total RNA was isolated from bulk cultures with TRIzol Reagent (Invitrogen, Carlsbad, Calif., USA), in accordance with the manufacturer's directions. For the classification exercise, microtiter plate cultures were treated with 200 nmol/l tretinoin or DMSO for two days to mimic the submaximal signatures likely to be encountered in a small molecule screen, and were and prepared for mRNA capture by the addition of Lysis Buffer (RNAture, Irvine, Calif., USA). […]

[2] = tested on: HL60 (human promyelocytic leukemia) cells; test: Gene expression profiling of tretinoin-treated HL60 cells, LMA RT-PCR amplicons detected on Luminex microspheres; assay type: cell-based; conditions: for Raw Signal (AU) / Differential Expression: log(tret/DMSO): HL60 cells; for Raw Signal (AU): 1 μmol/l tretinoin, five days; for Normalized Signal: normalized to LUA95, tretinoin-treated HL60 cells; for Differential Expression: log(tret/DMSO): tretinoin vs DMSO
Procedure: as §1, §2, §3, §4, §5

[3] = LUA95 (GAPDH3 internal reference, NM_002046)

Question: Which “Raw Signal (AU)” value ([1]; LUA7 mRNA (NM_000962)) does the source give for `CC1=C(/C=C/C(C)=C/C=C/C(C)=C/C(=O)O)C(C)(C)CCC1` [tretinoin] here?
Answer: 7.44 AU

Question: What about the “Normalized Signal” value ([1]; LUA7 mRNA (NM_000962)) of the same compound?
Answer: 0.084

Question: What about the “Differential Expression: log(tret/DMSO)” value ([1]; LUA7 mRNA (NM_000962)) of the same compound?
Answer: 0.486

Question: What about the “Raw Signal (AU)” value ([1]; LUA27 mRNA (NM_006432)) of the same compound?
Answer: 14.64 AU

Question: What about the “Normalized Signal” value ([1]; LUA27 mRNA (NM_006432)) of the same compound?
Answer: 0.166

Question: What about the “Differential Expression: log(tret/DMSO)” value ([1]; LUA27 mRNA (NM_006432)) of the same compound?
Answer: 0.818

Question: And the “Raw Signal (AU)” value ([1]; LUA59 mRNA (NM_004095))?
Answer: 1.14 AU

Question: What about the “Normalized Signal” value ([1]; LUA59 mRNA (NM_004095)) of the same compound?
Answer: 0.013

Question: What about the “Differential Expression: log(tret/DMSO)” value ([1]; LUA59 mRNA (NM_004095)) of the same compound?
Answer: −0.841

Question: And the “Raw Signal (AU)” value ([1]; LUA68 mRNA (NM_003132))?
Answer: 2.99 AU

Question: And the “Normalized Signal” value ([1]; LUA68 mRNA (NM_003132))?
Answer: 0.034

Question: What about the “Differential Expression: log(tret/DMSO)” value ([1]; LUA68 mRNA (NM_003132)) of the same compound?
Answer: −0.822

Question: And the “Raw Signal (AU)” value [1, 3]?
Answer: 88.45 AU

Question: What about the “Raw Signal (AU)” value ([2]; LUA7 mRNA (NM_000962)) of the same compound?
Answer: 389.3 AU

Question: And the “Normalized Signal” value ([2]; LUA7 mRNA (NM_000962))?
Answer: 0.222

Question: What about the “Differential Expression: log(tret/DMSO)” value ([2]; LUA7 mRNA (NM_000962)) of the same compound?
Answer: 0.785

Question: What about the “Raw Signal (AU)” value ([2]; LUA27 mRNA (NM_006432)) of the same compound?
Answer: 775.5 AU

Question: And the “Normalized Signal” value ([2]; LUA27 mRNA (NM_006432))?
Answer: 0.442

Question: And the “Differential Expression: log(tret/DMSO)” value ([2]; LUA27 mRNA (NM_006432))?
Answer: 0.871

Question: And the “Raw Signal (AU)” value ([2]; LUA59 mRNA (NM_004095))?
Answer: 100.3 AU

Question: What about the “Normalized Signal” value ([2]; LUA59 mRNA (NM_004095)) of the same compound?
Answer: 0.057

Question: What about the “Differential Expression: log(tret/DMSO)” value ([2]; LUA59 mRNA (NM_004095)) of the same compound?
Answer: −0.576

Question: What about the “Raw Signal (AU)” value ([2]; LUA68 mRNA (NM_003132)) of the same compound?
Answer: 178.0 AU

Question: And the “Normalized Signal” value ([2]; LUA68 mRNA (NM_003132))?
Answer: 0.101

Question: And the “Differential Expression: log(tret/DMSO)” value ([2]; LUA68 mRNA (NM_003132))?
Answer: −0.619

Question: And the “Raw Signal (AU)” value [2, 3]?
Answer: 1754.4 AU
